Like-named read-outs stand apart in the source and are kept apart here.
Assays:
[1] = molecular target: full-length human PRMT6 (Flag- and His-tagged) (Homo sapiens, UniProt Q96LA8); experiment: PRMT6 Biochemical Assay (3H-SAM Flashplate, peptide substrate); conditions: read-out: Biochemical IC50 PRMT6
Procedure, shortened: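 Radiometric methyltransferase readout: tritium transfer onto a biotin-tagged histone H4 36-50 peptide bearing monomethyl K44 (75 nM), captured on streptavidin Flashplates after stopping with 400 uM unlabeled SAM. Enzyme is baculovirus-expressed Flag-PRMT6-His at 1 nM, given 30 min with compound at room temperature before adding 200 nM 3H-SAM and 250 nM cold SAM (pH 7.6 Bicine, 2% DMSO). Percent inhibition relative to max/min (1 mM SAH) controls, curve-fit to IC50.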

[2] = tested on: mono-methyl arginine in RKO cells; experiment: RKO Methylation Assay, In Cell Western (ICW) for detection of mono-methyl arginine and DNA content; type: cell-based; conditions: RKO cells; for EC30: Homo sapiens, RKO, 72 h, read-out: In Cell Western EC30
Procedure, shortened: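 RKO cells were treated with compound for 72 hours at 37 °C, methanol-fixed and stained overnight at 4 °C with anti-mono-methyl arginine (1:200), with DRAQ5 for DNA. Odyssey 800/700 nm intensity ratio was normalized to DMSO and 20 μM reference-compound controls. EC30 from triplicate nine-point curves.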

[3] = single experiment or average of multiple experiments
[4] = 72 hours incubation, mono-methyl arginine signal normalised to DNA content, single experiment or average of multiple experiments
[5] = 72 hours compound incubation, mono-methyl arginine signal normalised to DNA content (DRAQ5), percent activation vs 20 μM reference compound

full-length human PRMT6 (Flag- and His-tagged), sequence (Q96LA8 with tags, fused parts or gaps): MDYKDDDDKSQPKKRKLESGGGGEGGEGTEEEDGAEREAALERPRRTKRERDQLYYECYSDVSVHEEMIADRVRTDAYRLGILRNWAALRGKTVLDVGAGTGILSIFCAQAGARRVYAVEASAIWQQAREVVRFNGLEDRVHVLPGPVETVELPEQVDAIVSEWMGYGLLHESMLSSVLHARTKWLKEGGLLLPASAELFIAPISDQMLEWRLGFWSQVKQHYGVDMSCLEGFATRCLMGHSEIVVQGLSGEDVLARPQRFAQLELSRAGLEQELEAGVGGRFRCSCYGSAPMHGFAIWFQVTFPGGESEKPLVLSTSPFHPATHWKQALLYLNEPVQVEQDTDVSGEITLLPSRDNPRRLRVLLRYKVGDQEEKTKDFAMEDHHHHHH

| SMILES | IC50 [1, 3] | EC30 [2, 4] | In Cell Western EC30 [2, 5] | EC30 [2, 5] | IC50 [1] |
| --- | --- | --- | --- | --- | --- |
| CNCCN(C)Cc1c[nH]nc1C#Cc1cccc(OC)c1 [Compound 1] | 0.07 µM | – | – | – | – |
| CNCCN(C)Cc1c[nH]nc1C#Cc1ccc(C(C)(C)C)cc1 [Compound 2] | 0.04 µM | – | – | – | – |
| CNCCN(C)Cc1c[nH]nc1C#Cc1ccc(F)cc1 [Compound 4] | 0.02 µM | – | – | – | – |
| CNCCN(C)Cc1c[nH]nc1/C=C/c1ccc(C(F)(F)F)cc1 [Compound 6] | 0.03 µM | – | – | – | – |
| CNCCN(C)Cc1c[nH]nc1/C=C/c1ccc(OC)cc1 [Compound 7] | 0.02 µM | – | – | – | – |
| Cc1ccc(/C=C/c2n[nH]cc2CN(C)CCN)cc1 [Compound 8] | 0.04 µM | – | – | – | – |
| CN(CCN)Cc1c[nH]nc1C1=CCOCC1 [Compound 10] | 0.31 µM | > 20 µM | C (“C” indicates an EC30 > 12.01 μM) | – | – |
| COc1cc(/C=C/c2n[nH]cc2CN(C)CCN)cc(OC)c1 [Compound 11] | 0.05 µM | – | – | – | – |
| CN(CCN)Cc1c[nH]nc1C1CC1 [Compound 12] | 1.08 µM | – | – | – | – |
| CN(CCN)Cc1c[nH]nc1/C=C/c1ccc(F)cc1F [Compound 13] | 0.01 µM | – | – | – | – |
| CN(CCN)Cc1c[nH]nc1/C=C/c1cc(C(F)(F)F)cc(C(F)(F)F)c1 [Compound 14] | 0.93 µM | – | – | – | – |
| CN(CCN)Cc1c[nH]nc1/C=C/c1cc(F)cc(F)c1 [Compound 15] | 0.04 µM | – | – | – | – |
| CN(CCN)Cc1c[nH]nc1/C=C/c1cccc(C(F)(F)F)c1 [Compound 16] | 0.15 µM | – | – | – | – |
| COc1cccc(/C=C/c2n[nH]cc2CN(C)CCN)c1 [Compound 17] | 0.05 µM | – | – | – | – |
| CN(CCN)Cc1c[nH]nc1/C=C/c1ccc(C(F)(F)F)cc1 [Compound 18] | 0.01 µM | – | – | – | – |
| COC/C=C/c1n[nH]cc1CN(C)CCN [Compound 19] | 0.17 µM | – | – | – | – |
| CN(CCN)Cc1c[nH]nc1/C=C/c1cccc(F)c1 [Compound 20] | 0.02 µM | – | – | – | – |
| CC(C)c1n[nH]cc1CN(C)CCN [Compound 21] | 0.67 µM | > 20 µM | C (“C” indicates an EC30 > 12.01 μM) | – | – |
| CN(CCN)Cc1c[nH]nc1C1CCCCC1 [Compound 22] | 0.02 µM | 1.24 µM | A (“A” indicates an EC30 ≤ 3.00 μM) | – | – |
| CN(CCN)Cc1c[nH]nc1CCc1ccc(F)cc1 [Compound 23, N^1-((3-(4-fluorophenethyl)-1H-pyrazol-4-yl)methyl)-N^1-methylethane-1,2-diamine] | 0.01 µM | 1.61 µM | A (“A” indicates an EC30 ≤ 3.00 μM) | – | – |
| CN(CCN)Cc1c[nH]nc1/C=C/Cc1ccccc1 [Compound 24] | 0.18 µM | 2.4 µM | A (“A” indicates an EC30 ≤ 3.00 μM) | – | – |
| CN(CCN)Cc1c[nH]nc1C1=CCCC1 [Compound 25] | 0.29 µM | 11.8 µM | B (“B” indicates an EC30 of 3.01-12.00 μM) | – | – |
| CN(CCN)Cc1c[nH]nc1C1CCC1 [Compound 26] | 0.51 µM | > 20 µM | C (“C” indicates an EC30 > 12.01 μM) | – | – |
| CN(CCN)Cc1c[nH]nc1C(C)(C)C [Compound 27] | 2.41 µM | > 20 µM | C (“C” indicates an EC30 > 12.01 μM) | – | – |
| CC(C)Cc1n[nH]cc1CN(C)CCN [Compound 28, N^1-((3-iso-butyl-1H-pyrazol-4-yl)methyl)-N^1-methylethane-1,2-diamine] | 0.08 µM | 11.1 µM | – | 3.01 to 12 µM | – |
| CCCc1n[nH]cc1CN(C)CCN [Compound 29] | 0.29 µM | > 20 µM | C (“C” indicates an EC30 > 12.01 μM) | – | – |
| Cc1n[nH]cc1CN(C)CCN [Compound 30] | 6.59 µM | > 20 µM | C (“C” indicates an EC30 > 12.01 μM) | – | – |

| SMILES | IC50 [1, 3] | EC30 [2, 4] | In Cell Western EC30 [2, 5] | EC30 [2, 5] | IC50 [1] |
| --- | --- | --- | --- | --- | --- |
| CN(CCN)Cc1c[nH]nc1C1CCCC1 [Compound 31] | 0.03 µM | > 20 µM | C (“C” indicates an EC30 > 12.01 μM) | – | – |
| CNCCN(C)Cc1c[nH]nc1C1CCN(C(=O)Cc2ccccc2)CC1 [Compound 32] | 0.02 µM | 2.35 µM | A (“A” indicates an EC30 ≤ 3.00 μM) | – | – |
| CN(CCN)Cc1n[nH]cc1C1CCCCC1 [Compound 33] | 0.02 µM | 3.33 µM | B (“B” indicates an EC30 of 3.01-12.00 μM) | – | – |
| CNCCN(C)Cc1c[nH]nc1C1CCN(C(=O)C(C)C)CC1 [Compound 34] | 0.03 µM | 1.15 µM | A (“A” indicates an EC30 ≤ 3.00 μM) | – | – |
| CC1CCC(c2c[nH]nc2CN(C)CCN)CC1 (stereo not shown) [Compound 35] | 0.01 µM | 0.73 µM | A (“A” indicates an EC30 ≤ 3.00 μM) | – | – |
| CN(CCN)Cc1n[nH]cc1C1CCC(C)(C)CC1 [Compound 36] | 0.01 µM | 0.63 µM | A (“A” indicates an EC30 ≤ 3.00 μM) | – | – |
| CC1CCC(c2n[nH]cc2CN(C)CCN)CC1 (stereo not shown) [Compound 37, N^1-methyl-N^1-((3-(4-methylcyclohexyl)-1H-pyrazol-4-yl)methyl)ethane-1,2-diamine] | 0.01 µM | 0.26 µM | A (“A” indicates an EC30 ≤ 3.00 μM) | – | – |
| CN(CCN)Cc1c[nH]nc1C1CCC(C)(C)CC1 [Compound 38, N^1-((3-(4,4-dimethylcyclohexyl)-1H-pyrazol-4-yl)methyl)-N^1-methylethane-1,2-diamine] | 0.01 µM | 0.13 µM | A (“A” indicates an EC30 ≤ 3.00 μM) | – | – |
| CNCCN(C)Cc1c[nH]nc1C1CCN(CC(C)C)CC1 [Compound 39, N^1-((3-(1-isobutylpiperidin-4-yl)-1H-pyrazol-4-yl)methyl)-N^1,N^2-dimethylethane-1,2-diamine] | 0.01 µM | 0.5 µM | A (“A” indicates an EC30 ≤ 3.00 μM) | – | – |
| CNCCN(C)Cc1c[nH]nc1C1CCN(C(=O)CC(C)C)CC1 [Compound 40, 3-methyl-1-(4-(4-((methyl(2-(methylamino)ethyl)amino)methyl)-1H-pyrazol-3-yl)piperidin-1-yl)butan-1-one] | 0.02 µM | 0.87 µM | – | < 3 µM | – |
| CNCCN(C)Cc1c[nH]nc1C1CCN(C)CC1 [Compound 41] | – | > 20 µM | C (“C” indicates an EC30 > 12.01 μM) | – | – |
| CNCCN(C)Cc1c[nH]nc1C1CCNCC1 [Compound 42] | 0.02 µM | > 20 µM | C (“C” indicates an EC30 > 12.01 μM) | – | – |
| CN(CCN)Cc1n[nH]cc1C1CCC(N2CCOCC2)CC1 (stereo not shown) [Compound 44, N^1-methyl-N^1-((4-(4-morpholinocyclohexyl)-1H-pyrazol-3-yl)methyl)ethane-1,2-diamine] | 0.02 µM | 4.57 µM | B (“B” indicates an EC30 of 3.01-12.00 μM) | – | – |
| CN(CCN)Cc1c[nH]nc1C1CCC2(CCCC2)CC1 [Compound 45] | 0.0056 µM | 0.054 µM | – | < 3 µM | < 0.1 µM |
| CNCCN(C)Cc1c[nH]nc1C1CCC2(CCCCC2)CC1 [Compound 46] | 0.0122 µM | 0.008 µM | – | < 3 µM | < 0.1 µM |
| CNCCN(C)Cc1cn(C)nc1C1CCC2(CCCC2)CC1 [Compound 47] | 0.0173 µM | 0.052 µM | – | – | < 0.1 µM |
| CNCCN(C)Cc1c[nH]nc1C1CCC2(CCCC2)CC1 [Compound 48] | 0.0178 µM | 0.014 µM | – | < 3 µM | < 0.1 µM |
| CNCCN(C)Cc1cnn(C)c1C1CCC2(CCCC2)CC1 [Compound 49] | 0.0199 µM | 0.05 µM | – | – | < 0.1 µM |
| CNCCN(C)Cc1c[nH]nc1C1CCC(C(C)C)CC1 (stereo not shown) [Compound 50] | 0.0206 µM | 0.027 µM | – | < 3 µM | < 0.1 µM |
| CNCCN(C)Cc1c[nH]nc1C1CCC2(CCCO2)CC1 (stereo not shown) [Compound 51] | 0.0239 µM | 0.052 µM | – | < 3 µM | < 0.1 µM |
| CNCCN(C)Cc1c[nH]nc1C1CCC(C)(C)C(C(=O)NCCCOC)C1 (stereo not shown) [Compound 93] | 0.0719 µM | – | – | – | < 0.1 µM |
| CNCCN(C)Cc1c[nH]nc1[C@H]1CCC(C)(C)[C@@H](C(=O)NCCOC)C1 [Compound 268] | 0.141 µM | – | – | – | 0.101 to 1 µM |
| CNCCN(C)Cc1c[nH]nc1[C@@H]1CCC(C)(C)[C@@H](C(=O)NCCOC)C1 [Compound 269] | 0.107 µM | – | – | – | 0.101 to 1 µM |
| CNCCN(C)Cc1c[nH]nc1[C@H]1CCC(C)(C)[C@@H](C(=O)NCCCOC)C1 [Compound 270] | 0.149 µM | – | – | – | 0.101 to 1 µM |
| CNCCN(C)Cc1c[nH]nc1[C@@H]1CCC(C)(C)[C@@H](C(=O)NCCCOC)C1 [Compound 271, (1S,5R)—N-(3-methoxypropyl)-2,2-dimethyl-5-[4-({methyl[2-(methylamino)ethyl]amino}methyl)-1H-pyrazol-3-yl]cyclohexane-1-carboxamide] | 0.121 µM | – | – | – | 0.101 to 1 µM |
| CNCCN(C)Cc1c[nH]nc1C1CCC(C)(C)[C@H](OCCCOC)C1 (stereo partly shown) [Compound 272] | 0.0739 µM | – | – | – | < 0.1 µM |
| CNCCN(C)Cc1c[nH]nc1C1CCC(C)(C)[C@H](OCC2CCOCC2)C1 (stereo partly drawn) [Compound 273, ({3-[(3R)-4,4-dimethyl-3-(oxan-4-ylmethoxy)cyclohexyl]-1H-pyrazol-4-yl}methyl)(methyl)[2-(methylamino)ethyl]amine] | 0.0405 µM | – | – | – | < 0.1 µM |

From US11512053B2, “Arginine methyltransferase inhibitors and uses thereof” (priority 2013, dated 2022)
